Data published in patent US11911393B2, “Non-catalytic substrate-selective p38alpha-specific MAPK inhibitors with endothelial-stabilizing and anti-inflammatory activity, and methods of use thereof” (University of Maryland, Baltimore, priority 2016, dated 2024).
Entries after “also recorded” stand apart in the source; their conditions may differ.

Assays:
[1] = test system: p38-dependent phosphorylation of MK2 and Stat-1 in HeLa cells; experiment: Inhibition of substrate phosphorylation (immunoblot); assay type: cell-based, human; conditions: 10 μM SB203580 or 50 μM UM101 for 30 min
Text: Cell extracts prepared in RIPA buffer containing protease and phosphatase inhibitors were resolved by SDS-PAGE, transferred to PVDF membrane, blocked with 5% nonfat dry milk, probed with primary antibodies against phosphorylated MK2 and Stat-1, and total p38α as a loading control. Bands were detected using secondary antibodies conjugated to infrared fluorophores and infrared fluorescence imaging (Odyssey; LICOR).

[2] = test system: LPS-induced cytokine expression in PMA-differentiated THP1 cells; experiment: LPS-induced cytokine expression, PCR-based cytokine array; assay type: cell-based, human; conditions: 25 μM SB203580 or 10, 25, or 100 μM UM101
[3] = test system: LPS/hyperthermia-induced ALI in CD1 mice; experiment: Mouse i.t. LPS/FRH-induced acute lung injury model; conditions: single i.p. injection of 100-1000 μg UM101, 1000 μg UM60 or 1000 μg SB203580, 30 min before i.t. 50 μg LPS and hyperthermia

Compound: C[S+]([O-])c1ccc(-c2nc(-c3ccncc3)c(-c3ccc(F)cc3)[nH]2)cc1 (stereo not shown) [SB203580, reference compound]
- anisomycin-stimulated phosphorylation of MK2, in words [1]: failed to completely block MK2 phosphorylation; also recorded: reduced
- anisomycin-stimulated phosphorylation of Stat-1, in words [1]: reduced
- LPS-stimulated genes of the array (16) whose expression was inhibited, in words [2]: inhibited expression of seven
- mice that died within 24 h [3]: one of six
